Data from ChEMBL document CHEMBL5528047, “A Potent SOS1 PROTAC Degrader with Synergistic Efficacy in Combination with KRASG12C Inhibitor” (J Med Chem, 2024).
pIC50: −log10 of the molar value. The source made the active and inactive calls. The rule behind the calls is not given here.

Tests used:
[1] = target: T1, von Hippel-Lindau disease tumor suppressor/Son of sevenless homolog 1 (Homo sapiens, UniProt Q07889+P40337); assay: Protac activity at VHL/SOS1 in human MIA PaCa-2 cells assessed as SOS1 degradation at 1 uM preincubated with BI3406 for 2 hrs followed by compound addition and measured after 3 hrs by Western blotting analysis; format: cell-based
Target sequence in this assay (P40337 whole entry, looked up): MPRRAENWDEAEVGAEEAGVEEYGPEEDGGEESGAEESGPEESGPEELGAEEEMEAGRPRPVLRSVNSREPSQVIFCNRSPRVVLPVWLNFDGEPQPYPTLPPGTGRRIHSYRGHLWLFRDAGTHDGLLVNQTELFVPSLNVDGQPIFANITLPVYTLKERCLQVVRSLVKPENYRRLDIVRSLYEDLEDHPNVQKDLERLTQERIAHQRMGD
Target sequence in this assay (Q07889 whole entry, looked up): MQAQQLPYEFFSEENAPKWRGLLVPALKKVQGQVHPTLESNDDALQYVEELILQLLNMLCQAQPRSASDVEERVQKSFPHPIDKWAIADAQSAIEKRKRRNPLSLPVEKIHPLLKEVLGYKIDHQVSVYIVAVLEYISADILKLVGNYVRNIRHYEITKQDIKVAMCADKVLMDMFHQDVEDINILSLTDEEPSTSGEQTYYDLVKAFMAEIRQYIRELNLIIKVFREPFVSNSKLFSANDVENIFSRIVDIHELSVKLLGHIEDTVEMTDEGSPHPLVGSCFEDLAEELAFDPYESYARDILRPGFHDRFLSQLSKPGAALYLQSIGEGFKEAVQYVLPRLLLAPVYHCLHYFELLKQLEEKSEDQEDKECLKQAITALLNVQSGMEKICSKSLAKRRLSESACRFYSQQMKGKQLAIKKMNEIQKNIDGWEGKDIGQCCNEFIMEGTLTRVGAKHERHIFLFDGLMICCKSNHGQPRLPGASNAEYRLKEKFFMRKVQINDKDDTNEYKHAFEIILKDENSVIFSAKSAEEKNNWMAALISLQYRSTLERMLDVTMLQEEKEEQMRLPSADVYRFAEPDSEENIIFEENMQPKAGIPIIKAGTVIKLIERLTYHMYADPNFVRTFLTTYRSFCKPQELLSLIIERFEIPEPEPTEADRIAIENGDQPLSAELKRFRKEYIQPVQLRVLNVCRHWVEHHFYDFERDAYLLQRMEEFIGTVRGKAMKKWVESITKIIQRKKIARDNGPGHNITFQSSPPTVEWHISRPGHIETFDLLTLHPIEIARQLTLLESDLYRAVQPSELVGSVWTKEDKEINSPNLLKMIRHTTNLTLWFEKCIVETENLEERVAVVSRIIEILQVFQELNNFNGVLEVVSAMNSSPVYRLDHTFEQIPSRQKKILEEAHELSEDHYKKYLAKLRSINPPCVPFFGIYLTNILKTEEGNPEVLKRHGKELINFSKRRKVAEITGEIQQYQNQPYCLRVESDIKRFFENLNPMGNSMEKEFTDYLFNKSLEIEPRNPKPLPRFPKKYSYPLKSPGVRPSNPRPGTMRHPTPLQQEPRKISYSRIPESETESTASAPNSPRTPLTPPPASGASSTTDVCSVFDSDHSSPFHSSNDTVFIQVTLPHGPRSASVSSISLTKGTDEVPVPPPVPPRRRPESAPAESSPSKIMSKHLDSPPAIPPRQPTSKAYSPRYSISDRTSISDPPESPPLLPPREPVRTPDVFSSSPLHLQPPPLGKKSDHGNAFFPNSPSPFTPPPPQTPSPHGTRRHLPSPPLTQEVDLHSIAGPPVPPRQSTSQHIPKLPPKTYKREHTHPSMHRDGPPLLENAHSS

[2] = target: T1, von Hippel-Lindau disease tumor suppressor/Son of sevenless homolog 1; assay: Protac activity at VHL/SOS1 in human NCI-H358 cells assessed as maximum SOS1 degradation at 0.003 to 10 uM incubated for 24 hrs by Western blotting analysis; format: cell-based; settings: dose 0.003-10 µM
Target sequence in this assay (P40337 whole entry, looked up): as the sequence (P40337 whole entry, looked up) above
Target sequence in this assay (Q07889 whole entry, looked up): as the sequence (Q07889 whole entry, looked up) above

K562 [3] = assay: Downregulation of phosphorylated-ERK level in human K562 cells at 0.3 to 3 uM incubated for 24 hrs by Western blotting analysis; format: functional, cell-based; settings: dose 0.3-3 µM
[4] = target: T1, von Hippel-Lindau disease tumor suppressor/Son of sevenless homolog 1; assay: Protac activity at VHL/SOS1 in human K562 cells assessed as SOS1 degradation at 1 uM preincubated with MG132 for 2 hrs followed by compound addition and measured after 2 hrs by Western blotting analysis; format: cell-based
Target sequence in this assay (P40337 whole entry, looked up): as the sequence (P40337 whole entry, looked up) above
Target sequence in this assay (Q07889 whole entry, looked up): as the sequence (Q07889 whole entry, looked up) above

MIA PaCa-2 [5] = assay: Antiproliferative activity against human MIA PaCa-2 cells incubated for 72 hrs by CCK8 assay; format: functional, cell-based; settings: MIA PaCa-2, 72 h
[6] = target: T1, von Hippel-Lindau disease tumor suppressor/Son of sevenless homolog 1; assay: Protac activity at VHL/SOS1 in human K562 cells assessed as SOS1 degradation at 10 uM by Western blotting analysis relative to control; format: cell-based
Target sequence in this assay (P40337 whole entry, looked up): as the sequence (P40337 whole entry, looked up) above
Target sequence in this assay (Q07889 whole entry, looked up): as the sequence (Q07889 whole entry, looked up) above

[7] = Cmax in ICR mouse at 10 mg/kg, po measured upto 24 hrs by LC-MS/MS analysis; format: ADME, organism-based; settings: in vivo
[8] = target: T1, von Hippel-Lindau disease tumor suppressor/Son of sevenless homolog 1; assay: Protac activity at VHL/SOS1 in human K562 cells assessed as maximum SOS1 degradation at 0.003 to 10 uM incubated for 24 hrs by Western blotting analysis; format: cell-based; settings: dose 0.003-10 µM
Target sequence in this assay (P40337 whole entry, looked up): as the sequence (P40337 whole entry, looked up) above
Target sequence in this assay (Q07889 whole entry, looked up): as the sequence (Q07889 whole entry, looked up) above

[9] = target: T1, von Hippel-Lindau disease tumor suppressor/Son of sevenless homolog 1; assay: Protac activity at VHL/SOS1 in human K562 cells assessed as SOS1 degradation at 1 uM preincubated with VHL ligand V1 for 2 hrs followed by compound addition and measured after 2 hrs by Western blotting analysis; format: cell-based
Target sequence in this assay (P40337 whole entry, looked up): as the sequence (P40337 whole entry, looked up) above
Target sequence in this assay (Q07889 whole entry, looked up): as the sequence (Q07889 whole entry, looked up) above

[10] = target: T1, von Hippel-Lindau disease tumor suppressor/Son of sevenless homolog 1; assay: Protac activity at VHL/SOS1 in human K562 cells assessed as SOS1 degradation at 1 uM incubated for 96 hrs by Western blotting analysis; format: cell-based
K562 [11] = assay: Effect on total ERK level in human K562 cells at 0.3 to 3 uM incubated for 24 hrs by Western blotting analysis; format: functional, cell-based; settings: dose 0.3-3 µM
[12] = target: T1, von Hippel-Lindau disease tumor suppressor/Son of sevenless homolog 1; assay: Protac activity at VHL/SOS1 in human PANC-1 cells assessed as SOS1 degradation incubated for 24 hrs by Western blotting analysis; format: cell-based
[13] = AUC(0 to t) in ICR mouse at 10 mg/kg, po measured upto 24 hrs by LC-MS/MS analysis; format: ADME, organism-based; settings: in vivo
[14] = Half life in ICR mouse at 10 mg/kg, po measured upto 24 hrs by LC-MS/MS analysis; format: ADME, organism-based; settings: in vivo
K562 [15] = assay: Antitumor activity against human K562 cells xenografted in NOD-SCID mouse assessed as tumor growth inhibition at 5 mg/kg, ip administered as 5 days on and 2 days off schedule for 21 days; format: functional; settings: K562, 120 h, time 5 day, read-out: TGI
[16] = target: T1, von Hippel-Lindau disease tumor suppressor/Son of sevenless homolog 1; assay: Protac activity at VHL/SOS1 in human PANC-1 cells assessed as SOS1 degradation at 10 uM by Western blotting analysis relative to control; format: cell-based
[17] = target: T1, von Hippel-Lindau disease tumor suppressor/Son of sevenless homolog 1; assay: Protac activity at VHL/SOS1 in human MIA PaCa-2 cells assessed as SOS1 degradation at 1 uM preincubated with VHL ligand V1 for 2 hrs followed by compound addition and measured after 3 hrs by Western blotting analysis; format: cell-based
[18] = target: T1, von Hippel-Lindau disease tumor suppressor/Son of sevenless homolog 1; assay: Protac activity at VHL/SOS1 in human MIA PaCa-2 cells assessed as SOS1 degradation at 1 uM preincubated with MG132 for 2 hrs followed by compound addition and measured after 3 hrs by Western blotting analysis; format: cell-based
SW837 = assay: Inhibition of ERK phosphorylation in human SW837 cells at 1 uM measured after 24 to 72 hrs in presence of AMG510 by Western blotting analysis; format: cell-based; settings: time 24-72 hrs
[19] = target: T1, von Hippel-Lindau disease tumor suppressor/Son of sevenless homolog 1; assay: Protac activity at VHL/SOS1 in human MIA PaCa-2 cells assessed as maximum SOS1 degradation at 0.003 to 10 uM incubated for 24 hrs by Western blotting analysis; format: cell-based; settings: dose 0.003-10 µM
K562 [20] = assay: Potency index, ratio of BI3406 IC50 to test compound IC50 for antiproliferative activity against human K562 cells incubated for 72 hrs by CCK8 assay; format: functional
MIA PaCa-2 [21] = assay: Induction of apoptosis in human MIA PaCa-2 cells assessed as increase in cleaved caspase-3 level incubated for 24 hrs in presence of 4-((S)-4-acryloyl-2-methylpiperazin-1-yl)-6-fluoro-7-(2-fluoro-6-hydroxyphenyl)-1-(2-isopropyl-4-methylpyridin-3-yl)pyrido[2,3-d]pyrimidin-2(1H)-one by Western blotting assay; format: functional, cell-based
[22] = target: T1, von Hippel-Lindau disease tumor suppressor/Son of sevenless homolog 1; assay: Protac activity at VHL/SOS1 in human MIA PaCa-2 cells assessed as SOS1 degradation at 1 uM incubated for 96 hrs by Western blotting analysis; format: cell-based
[23] = Toxicity in BALB/c mouse xenografted with human NCI-H358 cells assessed as body weight loss at 30 mg/kg, ip administered once daily for 28 days in presence of 10 mg/kg 4-((S)-4-acryloyl-2-methylpiperazin-1-yl)-6-fluoro-7-(2-fluoro-6-hydroxyphenyl)-1-(2-isopropyl-4-methylpyridin-3-yl)pyrido[2,3-d]pyrimidin-2(1H)-one; format: organism-based; settings: in vivo, 672 h, time 28 day
[24] = target: T1, von Hippel-Lindau disease tumor suppressor/Son of sevenless homolog 1; assay: Protac activity at VHL/SOS1 in human K562 cells assessed as SOS1 degradation incubated for 24 hrs by Western blotting analysis; format: cell-based
NCI-H358 [25] = assay: Antitumor activity against human NCI-H358 cells xenografted in BALB/c mouse assessed as tumor growth inhibition at 30 mg/kg, ip administered once daily for 28 days in presence of 10 mg/kg 4-((S)-4-acryloyl-2-methylpiperazin-1-yl)-6-fluoro-7-(2-fluoro-6-hydroxyphenyl)-1-(2-isopropyl-4-methylpyridin-3-yl)pyrido[2,3-d]pyrimidin-2(1H)-one; format: functional; settings: NCI-H358, 672 h, time 28 day, read-out: TGI
[26] = target: T1, von Hippel-Lindau disease tumor suppressor/Son of sevenless homolog 1; assay: Protac activity at VHL/SOS1 in human MIA PaCa-2 cells assessed as SOS1 degradation at 1 uM preincubated with MLN4924 for 2 hrs followed by compound addition and measured after 3 hrs by Western blotting analysis; format: cell-based
K562 [27] = assay: Antiproliferative activity against human K562 cells incubated for 72 hrs by CCK8 assay; format: functional, cell-based; settings: K562, 72 h
MIA PaCa-2 [28] = assay: Inhibition of ERK phosphorylation in human MIA PaCa-2 cells at 1 uM measured after 24 to 72 hrs in presence of AMG510 by Western blotting analysis; format: cell-based; settings: time 24-72 hrs
[29] = target: T1, von Hippel-Lindau disease tumor suppressor/Son of sevenless homolog 1; assay: Protac activity at VHL/SOS1 in human PANC-1 cells assessed as SOS1 degradation at 1 uM by Western blotting analysis relative to control; format: cell-based
NCI-H358 [30] = assay: Antitumor activity against human NCI-H358 cells xenografted in BALB/c mouse assessed as tumor growth inhibition at 30 mg/kg, ip administered once daily for 28 days; format: functional; settings: NCI-H358, 672 h, time 28 day, read-out: TGI
[31] = target: T1, von Hippel-Lindau disease tumor suppressor/Son of sevenless homolog 1; assay: Protac activity at VHL/SOS1 in human K562 cells assessed as SOS1 degradation at 1 uM by Western blotting analysis relative to control; format: cell-based

COc1cc2nc(C)nc(N[C@H](C)c3cc(N)cc(C(F)(F)F)c3)c2cc1OCCCCC(=O)N[C@H](C(=O)N1C[C@H](O)C[C@H]1C(=O)NCc1ccc(-c2scnc2C)cc1)C(C)(C)C
Activity [1]: inactive
Emax [2]: > 90%
Activity (K562 [3]): Active
Activity [4]: inactive
pIC50 (MIA PaCa-2 [5]): 7.01
Activity [6]: 93.3%
Cmax [7]: 1650 ng/mL
Emax [8]: > 90%
Activity [9]: inactive
Activity [10]: Active
Activity (K562 [11]): inactive
Activity [12]: Dose-Dependent Effect
DC50 [12]: 43 nM
AUC(0-t) at 24 h [13]: 4260 ng·h/mL
half-life [14]: 251 min
inhibition in vivo at 5 mg/kg (K562 [15]): 56.3%
Activity [16]: 93.9%
Activity [17]: inactive
Activity [18]: inactive
inhibition (SW837): Active
Emax [19]: > 90%
Ratio IC50 (K562 [20]): 3
Activity (MIA PaCa-2 [21]): Active
Activity [22]: Active
Activity [23]: Non-Toxic
Activity [24]: Dose-Dependent Effect
DC50 [24]: 130 nM
inhibition in vivo at 30 mg/kg (NCI-H358 [25]): 78.8%
Activity [26]: inactive
pIC50 (K562 [27]): 6.27
inhibition (MIA PaCa-2 [28]): Active
Activity [29]: 90.9%
inhibition in vivo at 30 mg/kg (NCI-H358 [30]): 11.4%
Activity [31]: 89.8%
